{"source": "paper PMC11992225", "about": "“Antibacterial compounds against non-growing and intracellular bacteria” (npj Antimicrobials and Resistance, 2025)", "key": {"P. aeruginosa DSM1117": {"tested_on": "P. aeruginosa DSM1117", "assay": "MIC, standard microdilution assay, growing P. aeruginosa", "format": "cell-based, Pseudomonas aeruginosa", "details": "P. aeruginosa; CA-MHB pH 7.4; read-out: MIC (μM) CA-MHB", "in_short": "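Each strain was exposed to serially diluted compound in broth, in triplicate. The media were TSB for Shigella; CA-MHB at pH 7.4 (HEPES 40 mM) for S. aureus, P. aeruginosa and UPEC; and, for UPEC only, low-pH LPM (pH 5.5, 30 mM MES).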"}, "non-growing UPEC CFT073 [1]": {"tested_on": "non-growing UPEC CFT073", "assay": "Dilution-regrowth assay (screen, hit validation, dose-response) on stationary-phase UPEC", "format": "cell-based, Escherichia coli", "details": "for OD600 at 6hr, Mean: after dilution into drug-free medium; for EC50: E. coli, regrowth delay of non-growing bacteria, 24 h treatment, OD600 6 h after 2500-fold dilution, read-out: EC50", "in_short": "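Regrowth (OD600 after 6 h, 37 °C) of diluted non-growing CFT073, following 24 h compound treatment of 24 h stationary cultures, defines activity relative to untreated control. Screen at 20 µM, validation at 20, 10, 5 µM (duplicates), dose–response in three biological replicates fitted by five-parameter logistic.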"}, "[2]": {"tested_on": "non-growing S. aureus DSM2569", "assay": "Dilution-regrowth assay (OD600, start-growth-time) on stationary-phase S. aureus", "format": "cell-based, Staphylococcus aureus", "details": "S. aureus; for OD600 at 8hr, Mean: after dilution into drug-free medium", "in_short": "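Non-growing S. aureus was tested in a dilution-regrowth format. Cells were cultured and treated for 24 h in 1:4 diluted CA-MHB, pH 7.4, then diluted into drug-free medium, and OD600 was measured every 20 min. Start-growth-time was the time OD600 passed 0.12. Dose-response curves were fitted with a five-parameter logistic equation to derive EC50.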"}, "non-growing UPEC CFT073 [3]": {"tested_on": "non-growing UPEC CFT073", "assay": "Dose-dependent killing analysis (CFU spot-plating) of stationary-phase UPEC", "format": "cell-based, Escherichia coli", "in_short": "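Killing assessed by CFU counts: overnight 37 °C LB agar spot plates (10 μl drops of 10-fold PBS dilutions) scored at the lowest dilution with distinct colonies. Samples were compound-treated non-growing UPEC CFT073, 200 μl per well. Performed as three biological replicates.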"}}, "note": "Where “and” joins values, the source holds several entries; their conditions need not be identical. Identical values can stand only once. Like-named read-outs stand apart in the source and are kept apart here."}
{"substance": "Bleomycin", "values": [{"measurement": "MIC", "setting": "P. aeruginosa DSM1117", "result": ">100", "unit": "µM"}, {"measurement": "OD600 at 6hr, Mean", "setting": "non-growing UPEC CFT073 [1]; E. coli in 1:4 CA-MHB (pH 7.4), 0.25 μM", "result": 0.585}, {"measurement": "OD600 at 6hr, Mean", "setting": "non-growing UPEC CFT073 [1]; E. coli in 1:4 CA-MHB (pH 7.4), 0.5 μM", "result": 0.575}, {"measurement": "OD600 at 6hr, Mean", "setting": "non-growing UPEC CFT073 [1]; E. coli in 1:4 CA-MHB (pH 7.4), 1 μM", "result": 0.327}, {"measurement": "OD600 at 6hr, Mean", "setting": "non-growing UPEC CFT073 [1]; E. coli in 1:4 CA-MHB (pH 7.4), 2.5 μM", "result": 0.130}, {"measurement": "OD600 at 6hr, Mean", "setting": "non-growing UPEC CFT073 [1]; E. coli in 1:4 CA-MHB (pH 7.4), 5 μM", "result": 0.073}, {"measurement": "OD600 at 6hr, Mean", "setting": "non-growing UPEC CFT073 [1]; E. coli in 1:4 CA-MHB (pH 7.4), 10 μM", "result": 0.067}, {"measurement": "OD600 at 6hr, Mean", "setting": "non-growing UPEC CFT073 [1]; E. coli in 1:4 CA-MHB (pH 7.4), 30 μM", "result": 0.076}, {"measurement": "OD600 at 6hr, Mean", "setting": "non-growing UPEC CFT073 [1]; E. coli in LPM (pH 5.5), 0.25 μM", "result": 0.600}, {"measurement": "OD600 at 6hr, Mean", "setting": "non-growing UPEC CFT073 [1]; E. coli in LPM (pH 5.5), 0.5 μM", "result": 0.583}, {"measurement": "OD600 at 6hr, Mean", "setting": "non-growing UPEC CFT073 [1]; E. coli in LPM (pH 5.5), 1 μM", "result": 0.569}, {"measurement": "OD600 at 6hr, Mean", "setting": "non-growing UPEC CFT073 [1]; E. coli in LPM (pH 5.5), 2.5 μM", "result": 0.559}, {"measurement": "OD600 at 6hr, Mean", "setting": "non-growing UPEC CFT073 [1]; E. coli in LPM (pH 5.5), 5 μM", "result": 0.513}, {"measurement": "OD600 at 6hr, Mean", "setting": "non-growing UPEC CFT073 [1]; E. coli in LPM (pH 5.5), 10 μM", "result": 0.348}, {"measurement": "OD600 at 6hr, Mean", "setting": "non-growing UPEC CFT073 [1]; E. coli in LPM (pH 5.5), 30 μM", "result": 0.169}, {"measurement": "EC50", "setting": "non-growing UPEC CFT073 [1]; LPM pH 5.5", "result": 9490, "unit": "nM"}, {"measurement": "EC50", "setting": "non-growing UPEC CFT073 [1]; pH 7.4, 1:4 CA-MHB", "result": 987, "unit": "nM"}, {"measurement": "OD600 at 8hr, Mean", "setting": "[2]; 0.1 μM", "result": 0.622}, {"measurement": "OD600 at 8hr, Mean", "setting": "[2]; 0.5 μM", "result": 0.595}, {"measurement": "OD600 at 8hr, Mean", "setting": "[2]; 2.5 μM", "result": 0.351}, {"measurement": "OD600 at 8hr, Mean", "setting": "[2]; 10 μM", "result": 0.129}, {"measurement": "EC50", "setting": "[2]; regrowth delay of non-growing bacteria, 1:4 CA-MHB pH 7.4, 24 h treatment, OD600 8 h after dilution, read-out: EC50", "result": 2560, "unit": "nM"}, {"measurement": "Δlog10(CFU/ml)", "setting": "non-growing UPEC CFT073 [3]; E. coli in 1:4 CA-MHB (pH 7.4), 0.25 μM, average killing vs before treatment (8.977)", "result": "0.270 log10(CFU/ml)"}, {"measurement": "Δlog10(CFU/ml)", "setting": "non-growing UPEC CFT073 [3]; E. coli in 1:4 CA-MHB (pH 7.4), 0.5 μM, average killing vs before treatment (8.977)", "result": "0.232 log10(CFU/ml)"}, {"measurement": "Δlog10(CFU/ml)", "setting": "non-growing UPEC CFT073 [3]; E. coli in 1:4 CA-MHB (pH 7.4), 1 μM, average killing vs before treatment (8.977)", "result": "0.145 log10(CFU/ml)"}, {"measurement": "Δlog10(CFU/ml)", "setting": "non-growing UPEC CFT073 [3]; E. coli in 1:4 CA-MHB (pH 7.4), 2.5 μM, average killing vs before treatment (8.977)", "result": "0.654 log10(CFU/ml)"}, {"measurement": "Δlog10(CFU/ml)", "setting": "non-growing UPEC CFT073 [3]; E. coli in 1:4 CA-MHB (pH 7.4), 5 μM, average killing vs before treatment (8.977)", "result": "1.149 log10(CFU/ml)"}, {"measurement": "Δlog10(CFU/ml)", "setting": "non-growing UPEC CFT073 [3]; E. coli in 1:4 CA-MHB (pH 7.4), 10 μM, average killing vs before treatment (8.977)", "result": "1.686 log10(CFU/ml)"}, {"measurement": "Δlog10(CFU/ml)", "setting": "non-growing UPEC CFT073 [3]; E. coli in LPM (pH 5.5), 0.25 μM, average killing vs before treatment (7.350)", "result": "0.339 log10(CFU/ml)"}, {"measurement": "Δlog10(CFU/ml)", "setting": "non-growing UPEC CFT073 [3]; E. coli in LPM (pH 5.5), 0.5 μM, average killing vs before treatment (7.350)", "result": "0.181 log10(CFU/ml)"}, {"measurement": "Δlog10(CFU/ml)", "setting": "non-growing UPEC CFT073 [3]; E. coli in LPM (pH 5.5), 1 μM, average killing vs before treatment (7.350)", "result": "0.347 log10(CFU/ml)"}, {"measurement": "Δlog10(CFU/ml)", "setting": "non-growing UPEC CFT073 [3]; E. coli in LPM (pH 5.5), 2.5 μM, average killing vs before treatment (7.350)", "result": "0.457 log10(CFU/ml)"}, {"measurement": "Δlog10(CFU/ml)", "setting": "non-growing UPEC CFT073 [3]; E. coli in LPM (pH 5.5), 5 μM, average killing vs before treatment (7.350)", "result": "1.004 log10(CFU/ml)"}, {"measurement": "Δlog10(CFU/ml)", "setting": "non-growing UPEC CFT073 [3]; E. coli in LPM (pH 5.5), 10 μM, average killing vs before treatment (7.350)", "result": "1.335 log10(CFU/ml)"}, {"measurement": "Log10(CFU/ml), Replicate #1", "setting": "non-growing UPEC CFT073 [3]; pH 5.5", "result": "5.301 Log10(CFU/ml) and 5.477 Log10(CFU/ml) and 6.204 Log10(CFU/ml) and 6.279 Log10(CFU/ml) and 6.491 Log10(CFU/ml) and 6.477 Log10(CFU/ml)"}, {"measurement": "Log10(CFU/ml), Replicate #2", "setting": "non-growing UPEC CFT073 [3]; pH 5.5", "result": "5.568 Log10(CFU/ml) and 6.114 Log10(CFU/ml) and 6.778 Log10(CFU/ml) (2×) and 6.903 Log10(CFU/ml) and 6.477 Log10(CFU/ml)"}, {"measurement": "Log10(CFU/ml), Replicate #3", "setting": "non-growing UPEC CFT073 [3]; pH 5.5", "result": "7.176 Log10(CFU/ml) and 7.447 Log10(CFU/ml) and 7.699 Log10(CFU/ml) and 7.954 Log10(CFU/ml) and 8.114 Log10(CFU/ml) and 8.079 Log10(CFU/ml)"}, {"measurement": "Log10(CFU/ml), Replicate #1", "setting": "non-growing UPEC CFT073 [3]; pH 7.4", "result": "7.903 Log10(CFU/ml) and 8.362 Log10(CFU/ml) and 8.903 Log10(CFU/ml) and 9.462 Log10(CFU/ml) and 9.362 Log10(CFU/ml) and 9.114 Log10(CFU/ml)"}, {"measurement": "Log10(CFU/ml), Replicate #2", "setting": "non-growing UPEC CFT073 [3]; pH 7.4", "result": "6.556 Log10(CFU/ml) and 7.279 Log10(CFU/ml) and 7.954 Log10(CFU/ml) and 8.778 Log10(CFU/ml) and 8.699 Log10(CFU/ml) and 8.301 Log10(CFU/ml)"}, {"measurement": "Log10(CFU/ml), Replicate #3", "setting": "non-growing UPEC CFT073 [3]; pH 7.4", "result": "7.415 Log10(CFU/ml) and 7.845 Log10(CFU/ml) and 8.114 Log10(CFU/ml) and 8.255 Log10(CFU/ml) and 8.176 Log10(CFU/ml)"}]}
